Test results from publication doi:10.1101/2023.08.31.555806v1 (biorxiv, 2023).

Target: T1, VraS (GST-VraS) (Staphylococcus aureus, UniProt Q7A2Q0)
T1 sequence (Q7A2Q0 1-347): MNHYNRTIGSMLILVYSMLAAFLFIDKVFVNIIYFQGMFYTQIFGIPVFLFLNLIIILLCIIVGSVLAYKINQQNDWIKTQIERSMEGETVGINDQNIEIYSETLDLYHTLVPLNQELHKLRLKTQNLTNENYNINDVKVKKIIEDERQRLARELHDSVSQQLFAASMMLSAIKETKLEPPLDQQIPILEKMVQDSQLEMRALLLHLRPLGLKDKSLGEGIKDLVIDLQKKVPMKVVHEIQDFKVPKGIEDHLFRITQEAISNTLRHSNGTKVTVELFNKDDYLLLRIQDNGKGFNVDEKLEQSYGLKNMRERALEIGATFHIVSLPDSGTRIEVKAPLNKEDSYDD
Test: ATPase activity, pyruvate kinase/lactate dehydrogenase-coupled NADH fluorescence
Type: biochemical

SMILES: CCSc1nc2ccc(NC(=O)NC(c3cc(C)ccn3)C3CC3)cc2o1 (stereo not shown) [compound 1, 1-(cyclopropyl(4-methylpyridin-2-yl)methyl)-3-(2-(ethylthio)benzo[d]oxazol-6-yl)urea]
- IC50: 940 ± 290 nM
